Experimental data taken from patent US8304421B2, “Indole compounds and their use as radiation sensitizing agents and chemotherapeutic agents” (Vanderbilt University, priority 2008, dated 2012).

Test system: HUVECs
Assay: Tubule formation assay on Matrigel
Assay type: cell-based, Human
Conditions: 25 μM, 24 hrs, assessed under microscope
Protocol: FIG. 5: HUVECs were plated on Matrigel, then treated wither DMSO or Compound 1 for 24 hrs. Tubule formation was assessed by looking under microscope.
Human umbilical vascular endothelial cells (HUVECs) (50,000 cells/well) were plated on Matrigel. After 30 min, the cells were treated either with DMSO or 25 μM Compound 1. Tubule formation was assessed by observing plates under microscope. FIG. 6 is represents 24 hr time point for DMSO and Compound 1.

SMILES: N#Cc1ccc(Cn2cc(C=C3C(=O)NC(=O)NC3=O)c3ccccc32)cc1 [Compound 1, 4-((3-((2,4,6-trioxotetrahydropyrimidin-5(6H)-ylidene)methyl)-1H-indol-1-yl)meth-yl)benzonitrile]
- Tubule formation by HUVECs: inhibited the tubule formation
